Assay [1] can be described thus: Inhibition of NS5A L31M mutant in HCV genotype 2a J6 (M31) infected in human HuH7 replicon cells assessed as reduction in viral replication after 3 days by luciferase reporter gene assay. For orientation: Replicon systems follow genome replication, usually without infectious particles.
A short description of assay [2]: Inhibition of NS5A in HCV genotype 2a JFH1 (L31) infected in human HuH7 replicon cells assessed as reduction in viral replication after 3 days by luciferase reporter gene assay.
Assay [3] can be described thus: Inhibition of NS5A L31M mutant in patient derived HCV genotype 2b MD2b-1 infected in human HuH7 replicon cells assessed as reduction in viral replication after 3 days by luciferase reporter gene assay.
Assay [4] can be described thus: Inhibition of NS5A L31M mutant in HCV genotype 2a JFH1 infected in human HuH7 replicon cells assessed as reduction in viral replication after 3 days by luciferase reporter gene assay.
Assay [5] in a line: Inhibition of NS5A in HCV genotype 1a H77 infected in human HuH7 replicon cells assessed as reduction in viral replication after 3 days by luciferase reporter gene assay.
A short description of assay [6]: Inhibition of NS5A in HCV genotype 1b Con1 infected in human HuH7 replicon cells assessed as reduction in viral replication after 3 days by luciferase reporter gene assay.
The nature of assay [7]: Inhibition of NS5A in HCV genotype 2b MD2b-1 infected in human HuH7 replicon cells assessed as reduction in viral replication after 3 days by luciferase reporter gene assay.
A short description of assay [8]: Inhibition of NS5A in HCV genotype 3a S52 infected in human HuH7 transient chimeric replicon cells assessed as reduction in viral replication after 3 days by luciferase reporter gene assay.
Assay [9] in a line: Inhibition of NS5A in HCV genotype 4a ED43 infected in human HuH7 transient chimeric replicon cells assessed as reduction in viral replication after 3 days by luciferase reporter gene assay.
A short description of assay [10]: Inhibition of NS5A L31M mutant in HCV genotype 2a JFH1 (M31) infected in human HuH7 replicon cells assessed as reduction in viral replication after 3 days by luciferase reporter gene assay.
Assay [11] can be described thus: Inhibition of NS5A in HCV genotype 2a JFH1 infected in human HuH7 replicon cells assessed as reduction in viral replication after 3 days by luciferase reporter gene assay.
Assay [12] is described as follows: Inhibition of NS5A in HCV genotype 4a ED43 infected in human HuH7 replicon cells assessed as reduction in viral replication after 3 days by luciferase reporter gene assay.
Assay [13] is described as follows: Inhibition of NS5A in HCV genotype 6e D88 infected in human HuH7 replicon cells assessed as reduction in viral replication after 3 days by luciferase reporter gene assay.
Assay [14] in a line: Inhibition of NS5A in HCV genotype 5a SA13 infected in human HuH7 replicon cells assessed as reduction in viral replication after 3 days by luciferase reporter gene assay.
The nature of assay [15]: Inhibition of NS5A in HCV genotype 6a HK6 infected in human HuH7 replicon cells assessed as reduction in viral replication after 3 days by luciferase reporter gene assay.
Assay [16] can be described thus: Inhibition of NS5A in HCV genotype 2a J6 infected in human HuH7 replicon cells assessed as reduction in viral replication after 3 days by luciferase reporter gene assay.

Here are results for 16 molecules from BindingDB's records for doi:10.1016/j.bmcl.2019.04.027 (Gilead Sciences, 2019).

Consider `COC(=O)N[C@H](C(=O)N1CCC[C@H]1c1ncc(-c2cc3c4c(c2)OCc2cc(-c5cnc([C@@H]6CCCN6C(=O)[C@H](NC(=O)OC)c6ccccc6)[nH]5)cc(c2-4)OC3)[nH]1)C1CCOCC1`, for which the EC50 (usually the midpoint of the concentration-response curve) in [1] was found to be 0.28 nM; in [2], 22 pM; in assay [3], 0.057 nM; in assay [4] it was 0.32 nM; in assay [5], 0.32 nM; in assay [6], 0.315 nM.

Take `COC(=O)N[C@H](C(=O)N1[C@@H](C)CC[C@H]1c1ncc(-c2ccc3c(c2)COc2cc4c(ccc5nc([C@@H]6CC[C@H](C)N6C(=O)[C@@H](NC(=O)OC)C(C)C)[nH]c54)cc2-3)[nH]1)C(C)C`: the EC50 in assay [1] was 0.28 nM; in [7], 0.063 nM; in assay [8], 0.02 nM; in assay [9] it was 0.008 nM; in assay [5], 0.008 nM; in assay [6], 0.012 nM. In addition, the EC50 in [10] amounted to 14 pM.

Turning to `COC[C@H]1C[C@@H](c2ncc(-c3ccc4c(c3)COc3cc5c(ccc6nc([C@@H]7C[C@H](C)CN7C(=O)[C@@H](NC(=O)OC)C(C)C)[nH]c65)cc3-4)[nH]2)N(C(=O)[C@H](NC(=O)OC)c2ccccc2)C1`, the EC50 in assay [1] amounted to 0.014 nM; in [7], 0.015 nM; in assay [11] it was 6 pM; in assay [8] it was 0.025 nM; in assay [12] it was 0.011 nM; in assay [5], 0.013 nM. Also, in assay [6], the EC50 came to 0.017 nM.

As for `COC[C@H]1C[C@@H](c2ncc(-c3ccc4c(c3)COc3cc5c(ccc6nc([C@@H]7C[C@H](COC)CN7C(=O)[C@@H](NC(=O)OC)C(C)C)[nH]c65)cc3-4)[nH]2)N(C(=O)[C@@H](NC(=O)OC)C(C)C)C1`, the EC50 is 0.061 nM in [1]; 0.18 nM in [7]; 0.206 nM in [8]; 0.036 nM in assay [9]; 0.024 nM in assay [5]; 0.034 nM in [6]. Further, the EC50 in assay [10] came to 10 pM.

Regarding `COC(=O)N[C@H](C(=O)N1C[C@@H](C)C[C@H]1c1nc2ccc3cc4c(cc3c2[nH]1)OCc1cc(-c2cnc([C@@H]3C[C@H](C)CN3C(=O)[C@H](NC(=O)OC)c3ccccc3)[nH]2)ccc1-4)C(C)C`, the EC50 in assay [1] amounted to 0.045 nM; in assay [7], 0.027 nM; in assay [11] it was 18 pM; in assay [8] it was 0.05 nM; in assay [12], 0.063 nM; in [5] it was 0.033 nM. Moreover, the EC50 in assay [6] was determined as 0.03 nM.

`COC[C@H]1C[C@@H](c2ncc(-c3ccc4c(c3)COc3cc5c(ccc6nc([C@@H]7C[C@H]8C[C@@H]8N7C(=O)[C@@H](NC(=O)OC)C(C)C)[nH]c65)cc3-4)[nH]2)N(C(=O)[C@H](NC(=O)OC)c2ccccc2)C1`: the EC50 in assay [1] was 0.113 nM; in assay [7], 0.046 nM; in assay [11], 6 pM; in assay [8] it was 0.018 nM; in [12], 0.009 nM; in assay [5] it was 0.01 nM. Also, the EC50 in assay [6] was determined as 0.011 nM.

Regarding `COC[C@H]1C[C@@H](c2nc3ccc4cc5c(cc4c3[nH]2)OCc2cc(-c3cnc([C@@H]4CC[C@H](C)N4C(=O)[C@@H](NC(=O)OC)C(C)C)[nH]3)ccc2-5)N(C(=O)[C@@H](NC(=O)OC)C(C)C)C1`, the EC50 was determined as 0.067 nM in assay [1]; 0.157 nM in assay [7]; 0.061 nM in assay [8]; 0.015 nM in assay [9]; 0.011 nM in [5]; 0.017 nM in assay [6]. Also, the EC50 in assay [10] is 12 pM.

As for `COC(=O)N[C@H](C(=O)N1CCC[C@H]1c1ncc(-c2cc3c4c(c2)OCc2cc(-c5cnc([C@@H]6CCCN6C(=O)[C@@H](NC(=O)OC)C(C)C)[nH]5)cc(c2-4)OC3)[nH]1)C(C)C`, the EC50 came to 8.81 nM in assay [1]; 1.16 nM in assay [13]; 0.055 nM in [8]; 7 pM in [2]; 0.056 nM in assay [14]; 0.016 nM in assay [15]. For the same molecule, the EC50 in assay [3] worked out at 1.77 nM; in assay [9] it was 0.029 nM; in assay [4], 5.9 nM; in [5], 0.029 nM; in [6], 0.022 nM.

Regarding `COC[C@H]1C[C@@H](c2ncc(-c3ccc4c(c3)COc3cc5c(ccc6nc([C@@H]7CCCN7C(=O)[C@@H](NC(=O)OC)C(C)C)[nH]c65)cc3-4)[nH]2)N(C(=O)[C@H](NC(=O)OC)c2ccccc2)C1`, the EC50 in [1] stood at 0.013 nM; in assay [7], 0.009 nM; in assay [11], 6 pM; in [8] it was 0.017 nM; in assay [12], 0.007 nM; in assay [5], 0.011 nM. In addition, the EC50 in assay [6] turned out to be 0.019 nM.

Consider `COC(=O)N[C@@H](C(=O)N1CCC[C@H]1c1ncc(-c2cc3c4c(c2)OCc2cc(-c5cnc([C@@H]6CCCN6C(=O)[C@H](NC(=O)OC)c6ccccc6)[nH]5)cc(c2-4)OC3)[nH]1)c1ccccc1`, for which the EC50 in assay [1] came to 0.24 nM; in assay [2] it was 7 pM; in assay [3], 0.022 nM; in assay [4] it was 0.145 nM; in assay [5], 0.093 nM; in [6], 0.048 nM.

With `COC[C@H]1C[C@@H](c2ncc(-c3cc4c5c(c3)OCc3cc(-c6cnc([C@@H]7CC[C@H](C)N7C(=O)[C@@H](NC(=O)OC)C(C)C)[nH]6)cc(c3-5)OC4)[nH]2)N(C(=O)[C@H](NC(=O)OC)c2ccccc2)C1`, the EC50 was found to be 0.48 nM in [16]; 0.11 nM in assay [13]; 0.29 nM in [7]; 0.12 nM in [8]; 0.081 nM in assay [14]; 0.022 nM in assay [15]. Besides, the values for the EC50 in [12], in [5] and in assay [6] were 0.013 nM, 0.016 nM and 0.016 nM, respectively.

In the case of `COC[C@H]1C[C@@H](c2nc3ccc4cc5c(cc4c3[nH]2)OCc2cc(-c3cnc([C@@H]4C[C@H](C)CN4C(=O)[C@@H](NC(=O)OC)C(C)C)[nH]3)ccc2-5)N(C(=O)[C@@H](NC(=O)OC)C(C)C)C1`, the EC50 in assay [1] came out at 0.106 nM; in assay [7], 0.166 nM; in assay [8], 0.058 nM; in [9], 0.022 nM; in assay [5], 0.014 nM; in [6] it was 0.019 nM. In assay [10], the concentration giving a half-maximal response (EC50) turned out to be 9 pM.

On to `COC(=O)N[C@H](C(=O)N1CCC[C@H]1c1ncc(-c2ccc3c(c2)COc2cc4c(ccc5nc([C@@H]6C[C@H](C)CN6C(=O)[C@@H](NC(=O)OC)C(C)C)[nH]c54)cc2-3)[nH]1)C(C)C`, for which the EC50 in assay [1] came to 0.443 nM; in assay [7], 0.132 nM; in assay [8], 0.018 nM; in assay [9], 0.011 nM; in assay [5], 0.011 nM; in [6], 0.018 nM. The EC50 in assay [10] worked out at 7 pM.

`COC[C@H]1C[C@@H](c2ncc(-c3ccc4c(c3)COc3cc5c(ccc6nc([C@@H]7C[C@@H]8C[C@H]8N7C(=O)[C@@H](NC(=O)OC)C(C)C)[nH]c65)cc3-4)[nH]2)N(C(=O)[C@H](NC(=O)OC)c2ccccc2)C1`: the EC50 in assay [1] came to 0.021 nM; in assay [7], 0.028 nM; in assay [11], 7 pM; in assay [8] it was 0.025 nM; in [12], 0.009 nM; in assay [5], 0.013 nM. The EC50 in [6] worked out at 0.02 nM.

Consider `COC(=O)N[C@H](C(=O)N1CCC[C@H]1c1ncc(-c2cc3c4c(c2)OCc2cc(-c5cnc([C@@H]6CCCN6C(=O)[C@H](NC(=O)OC)c6ccccc6)[nH]5)cc(c2-4)OC3)[nH]1)C(C)C`, for which the concentration giving a half-maximal response (EC50) in assay [1] came out at 1.82 nM; in assay [2], 4 pM; in assay [3], 0.076 nM; in assay [4] it was 0.6 nM; in assay [5] it was 0.05 nM; in assay [6], 0.031 nM.

With `CCO[C@H]1C[C@@H](c2nc3ccc4cc5c(cc4c3[nH]2)OCc2cc(-c3cnc([C@@H]4CCCN4C(=O)[C@@H](NC(=O)OC)C(C)C)[nH]3)ccc2-5)N(C(=O)[C@@H](NC(=O)OC)C(C)C)C1`, the half-maximal effective concentration (EC50) in assay [1] stood at 0.378 nM; in assay [7], 0.265 nM; in assay [8], 0.048 nM; in assay [9] it was 0.02 nM; in assay [5], 0.015 nM; in assay [6], 0.018 nM. The EC50 in assay [10] was determined as 7 pM.
